The text below walks through data of patent US10724072B2, “Use of phospho-Akt as a biomarker of drug response” (Basilea Pharmaceutica AG, priority 2011, dated 2020).

Assay type in all cases: cell-based, human
For one test, the system named is A549 NSCLC cells. The test is described as follows: Immunofluorescent staining of microtubules (anti-alpha-tubulin) in cultured cells. Particulars: for Microtubule phenotype of mitotic or G2/M arrested cells: 24 hours treatment; for Effect on microtubule phenotype induced by BAL27862: 24 hours BAL27862 with the final 4 hours including the agent. As to the method:
(§1) A549 human non-small cell lung cancer (NSCLC, ATCC reference number CCL-185) cells, HeLa cervical cancer cells (ATCC reference number CCL-2) and SKBR3 breast carcinoma cells (ATCC reference number HTB-30) were seeded at densities of 50% on round microscope coverslips and cultured for 24 hours in RPMI-1640 containing 10% FCS (also referred to as FBS) at 37° C., 5% CO2. Compounds to be tested were dissolved in DMSO. The cell culture medium was replaced with medium containing the diluted compound(s) (paclitaxel, vinblastine, colchicine and nocodazole were purchased from Sigma-Aldrich) or vehicle. After treatment for the times indicated in the Brief Description of the Figures, coverslips were washed and cells were fixed in methanol/acetone (1:1) for 5 minutes at room temperature and subsequently incubated in blocking buffer (0.5% BSA and 0.1% TX-100 in PBS) for 30 minutes at room temperature. Specimens were then incubated with anti-alpha-tubulin antibody (Sigma, 1:2000) for 1 hour at room temperature in blocking buffer. After several washing steps cells were incubated with AlexaFluor-488 goat-anti-mouse IgG (Molecular Probes, 1:3000) for 1 hour at room temperature followed by several washing steps with blocking buffer. Specimens were then mounted with ProLong Gold antifade (Molecular Probes), sealed with nail polish and examined with a Leica immunofluorescence microscope. Images were captured with a cooled CCD-camera and processed by ImageJ software.

Another test has as its system MEXF 276. As to the kind of experiment: Colony outgrowth assay, patient-derived melanoma xenograft cells. Also on record: key to Response to vinblastine: BAL27862-sensitive tumour cells were those that had IC70 values in the low nanomolar range; BAL27862-resistant tumour cells had IC70 values >600 nanomolar. The conditions noted are these: MEXF 276, ex vivo colony outgrowth. The protocol: (§2) Single cell suspensions of patient-derived tumour xenografts (maintained in nude mice) were prepared. For colony outgrowth assays, cells were plated in soft agar in 24-well plates according to the assay introduced by Hamburger & Salmon (Primary bioassay of human tumour stem cells, Science, 1977, 197:461-463). 2×10^4-6×10^4 cells in 0.2 mL medium containing 0.4% agar were plated out on a bottom layer of 0.75% agar. Test compounds were applied in 0.2 mL culture medium. Every 24-well plate contained untreated controls and samples in triplicates. Cultures were incubated at 37° C. and 7.5% CO2 for 5-28 days. 24 hours prior to analysis, vital colonies were stained with a solution of metabolizable tetrazolium salt (Alley M C et al, Life Sci. 1982, 31:3071-3078) and were counted with an automatic image analysis system (Omnicon 3600, Biosys GmbH).
(§3) Relative drug effects were expressed by the ratio of the mean number of colonies in the treated wells and the control wells. IC70-values were determined by plotting compound concentrations versus relative colony counts.
(§4) Based on colony outgrowth assays, using tumour cells derived from 8 patient-derived tumours maintained as xenografts in mice, BAL27862-sensitive or resistant tumour cells were identified from gastric cancer, colorectal cancer, melanoma, and lung cancer (see Table 1). In this table, BAL27862-sensitive tumour cells were those that had IC70 values in the low nanomolar range, while BAL27862-resistant tumour cells had IC70 values >600 nanomolar. Paclitaxel and vinblastine data, using the same ex vivo assay, was available for 7 of the 8 tumour models. Of these 7 models, all were resistant to treatment with paclitaxel, while 6 were sensitive to treatment with vinblastine.

A further test relates to LXFE 211. The test is described as follows: Colony outgrowth assay, patient-derived lung tumour xenograft cells. Also on record: key to Response to BAL27862 / Response to vinblastine: BAL27862-sensitive tumour cells were those that had IC70 values in the low nanomolar range; BAL27862-resistant tumour cells had IC70 values >600 nanomolar. Particulars: LXFE 211, ex vivo colony outgrowth. As to the method:
as §2, §3, §4
In general terms: Xenograft models place foreign cells or tissue in a host animal.

A further test concerns MEXF 1341. The test is described as follows: Colony outgrowth assay, patient-derived melanoma xenograft cells. More on the design: key to Response to BAL27862 / Response to vinblastine: BAL27862-sensitive tumour cells were those that had IC70 values in the low nanomolar range; BAL27862-resistant tumour cells had IC70 values >600 nanomolar. Particulars: MEXF 1341, ex vivo colony outgrowth. As to the method: as §2, §3, §4

A further test relates to GFX 97. As to the kind of experiment: Colony outgrowth assay, patient-derived gastric tumour xenograft cells. More on the design: key to Response to vinblastine: BAL27862-sensitive tumour cells were those that had IC70 values in the low nanomolar range; BAL27862-resistant tumour cells had IC70 values >600 nanomolar. The conditions noted are these: GFX 97, ex vivo colony outgrowth. The protocol:
as §2, §3, §4

A further test has as its system CXF 243. The test is described as follows: Colony outgrowth assay, patient-derived colorectal cancer xenograft cells. Also on record: key to Response to vinblastine: BAL27862-sensitive tumour cells were those that had IC70 values in the low nanomolar range; BAL27862-resistant tumour cells had IC70 values >600 nanomolar. The conditions noted are these: CXF 243, ex vivo colony outgrowth. As to the method:
as §2, §3, §4

The test system of another test is CXF 1103. The test is described as above. Also on record: key to Response to BAL27862: BAL27862-sensitive tumour cells were those that had IC70 values in the low nanomolar range; BAL27862-resistant tumour cells had IC70 values >600 nanomolar. Particulars: CXF 1103, ex vivo colony outgrowth. As to the method: as §2, §3, §4
The next test relates to GFX 251. The test is described as follows: Colony outgrowth assay, patient-derived gastric tumour xenograft cells. More on the design: key to Response to vinblastine / Response to BAL27862: BAL27862-sensitive tumour cells were those that had IC70 values in the low nanomolar range; BAL27862-resistant tumour cells had IC70 values >600 nanomolar. The conditions noted are these: GFX 251, ex vivo colony outgrowth. The protocol:
as §2, §3, §4

Another test deals with LXFE 397. The test is described as follows: Colony outgrowth assay, patient-derived lung tumour xenograft cells. The conditions noted are these: LXFE 397, ex vivo colony outgrowth. As to the method: as §2, §3
Based on colony outgrowth assays, using tumour cells derived from 8 patient-derived tumours maintained as xenografts in mice, BAL27862-sensitive or resistant tumour cells were identified from gastric cancer, colorectal cancer, melanoma, and lung cancer (see Table 1). […]

For test [1], the system named is SKBR3 breast cancer cells. As to the kind of experiment: Immunofluorescent staining of microtubules (anti-alpha-tubulin) in cultured cells. Particulars: SKBR3, 50 nM, 24 hours treatment. As to the method:
as §1

The subject of test [2] is HeLa cervical cancer cells. The description is as above. The conditions noted are these: 50 nM, 24 hours treatment. The protocol:
as §1

Bounds are passed on as bounds.

As to `N#CCCNc1nonc1-c1nc2ccccc2n1CC(=O)c1ccc(N)nc1` [Compound C, 3-(4-{1-[2-(6-Amino-pyridin-3-yl)-2-oxo-ethyl]-1H-benzoimidazol-2-yl}-furazan-3-ylamino)-propionitrile], the “Microtubule phenotype of mitotic or G2/M arrested cells” value with A549 NSCLC cells (A549, 20 nM) is on record as “dot-like structures”.
For `COc1cc2c(c(OC)c1OC)-c1ccc(OC)c(=O)cc1[C@@H](NC(C)=O)CC2` [colchicine, reference compound], in the test on A549 NSCLC cells (A549), the “Effect on microtubule phenotype induced by BAL27862” value (“Effect … by BAL27862” for short) is “no impact”.
Regarding `CC(=O)O[C@H]1C(=O)[C@@]2(C)[C@H]([C@H](OC(=O)c3ccccc3)[C@]3(O)C[C@H](OC(=O)[C@H](O)[C@@H](NC(=O)c4ccccc4)c4ccccc4)C(C)=C1C3(C)C)[C@]1(OC(C)=O)CO[C@@H]1C[C@@H]2O` [paclitaxel, reference compound], the Response to paclitaxel result with MEXF 276, in the test on LXFE 211, in the test on MEXF 1341, in the test on GFX 97, with CXF 243 and in the test on CXF 1103 was “resistant (BAL27862-resistant tumour cells had IC70 values >600 nanomolar)” in each case. Moreover, the Response to paclitaxel result in the test with GFX 251 was “resistant (BAL27862-resistant tumour cells had IC70 values >600 nanomolar)”. The “Effect … by BAL27862” value in the test with A549 NSCLC cells (A549) is listed as “no impact”.
Take `Nc1ccc(C(=O)Cn2c(-c3nonc3N)nc3ccccc32)cc1` [Compound B, 2-[2-(4-Amino-furazan-3-yl)-benzoimidazol-1-yl]-1-(4-amino-phenyl)-ethanone]: the “Microtubule phenotype of mitotic or G2/M arrested cells” value in the test on A549 NSCLC cells (A549, 80 nM) is “dot-like structures”.
`N#CCCNc1nonc1-c1nc2ccccc2n1CC(=O)c1ccc(N)cc1` [BAL27862, 3-(4-{1-[2-(4-Amino-phenyl)-2-oxo-ethyl]-1H-benzoimidazol-2-yl}-furazan-3-ylamino)-propionitrile]: the “IC70 BAL27862” value in the test on MEXF 276 is more than 3500 nM; in the test with LXFE 211, 21 nM; in the test with MEXF 1341, 25 nM; in the test with GFX 97, more than 3500 nM; with LXFE 397 it was more than 3500 nM; in the test on CXF 243 it was 696 nM. For the same compound, the “IC70 BAL27862” value in the test with CXF 1103 was 22 nM; with GFX 251 it was 485 nM. The “Response to BAL27862” value with MEXF 276 is “resistant (BAL27862-resistant tumour cells had IC70 values >600 nanomolar)”; in the test with LXFE 211 it was “sensitive”; in the test on MEXF 1341, “sensitive”; with GFX 97, “resistant (BAL27862-resistant tumour cells had IC70 values >600 nanomolar)”; in the test on LXFE 397, “resistant (BAL27862-resistant tumour cells had IC70 values >600 nanomolar)”; with CXF 243 it was “resistant (BAL27862-resistant tumour cells had IC70 values >600 nanomolar)”. The “Response to BAL27862” value in the test with CXF 1103 and with GFX 251 was “sensitive” in each case. Moreover, the “Microtubule phenotype of mitotic or G2/M arrested cells” value in test [1] is reported as “dot-like structures”; in the test with A549 NSCLC cells (A549, 50 nM), “dot-like structures”; in test [2], “dot-like structures”. Further, in the test with A549 NSCLC cells (A549, 24 hours vinblastine, colchicine, paclitaxel or nocodazole with the final 4 hours including BAL27862), the “Effect on microtubule phenotype induced by conventional microtubule targeting agents” value is “disruption of the microtubule structures”.
With `CC[C@]1(O)C[C@@H]2CN(CCc3c([nH]c4ccccc34)[C@@](C(=O)OC)(c3cc4c(cc3OC)N(C)[C@H]3[C@@](O)(C(=O)OC)[C@H](OC(C)=O)[C@]5(CC)C=CCN6CC[C@]43[C@@H]65)C2)C1` [vinblastine, reference compound], the Response to vinblastine result is “sensitive” in the test with MEXF 276; “sensitive” in the test with LXFE 211; “sensitive” with MEXF 1341; “sensitive” in the test with GFX 97; “sensitive” with CXF 243; “resistant (BAL27862-resistant tumour cells had IC70 values >600 nanomolar)” in the test on CXF 1103. Besides, the Response to vinblastine result with GFX 251 is “sensitive”. Besides, in the test with A549 NSCLC cells (A549), the “Effect … by BAL27862” value is “no impact”.
For the compound `COC(=O)Nc1nc2ccc(C(=O)c3cccs3)cc2[nH]1` [nocodazole, reference compound], the “Effect … by BAL27862” value in the test on A549 NSCLC cells (A549) is “no impact”.
